Laboratory results as given in patent US12258354B2, “AhR modulators” (IDEAYA BIOSCIENCES, INC., priority 2018, dated 2025).

Biological target: T1, hAhR (Homo sapiens, UniProt P35869)
T1 construct: Stably integrated DRE-luciferase cell lines were generated by transducing the both cell lines with Cignal XRE luciferase reporter; endogenous in cells; host or cells: HEPG2 DRE-Luc cells (only the XRE luciferase reporter was transduced)
T1 sequence (P35869 11-848): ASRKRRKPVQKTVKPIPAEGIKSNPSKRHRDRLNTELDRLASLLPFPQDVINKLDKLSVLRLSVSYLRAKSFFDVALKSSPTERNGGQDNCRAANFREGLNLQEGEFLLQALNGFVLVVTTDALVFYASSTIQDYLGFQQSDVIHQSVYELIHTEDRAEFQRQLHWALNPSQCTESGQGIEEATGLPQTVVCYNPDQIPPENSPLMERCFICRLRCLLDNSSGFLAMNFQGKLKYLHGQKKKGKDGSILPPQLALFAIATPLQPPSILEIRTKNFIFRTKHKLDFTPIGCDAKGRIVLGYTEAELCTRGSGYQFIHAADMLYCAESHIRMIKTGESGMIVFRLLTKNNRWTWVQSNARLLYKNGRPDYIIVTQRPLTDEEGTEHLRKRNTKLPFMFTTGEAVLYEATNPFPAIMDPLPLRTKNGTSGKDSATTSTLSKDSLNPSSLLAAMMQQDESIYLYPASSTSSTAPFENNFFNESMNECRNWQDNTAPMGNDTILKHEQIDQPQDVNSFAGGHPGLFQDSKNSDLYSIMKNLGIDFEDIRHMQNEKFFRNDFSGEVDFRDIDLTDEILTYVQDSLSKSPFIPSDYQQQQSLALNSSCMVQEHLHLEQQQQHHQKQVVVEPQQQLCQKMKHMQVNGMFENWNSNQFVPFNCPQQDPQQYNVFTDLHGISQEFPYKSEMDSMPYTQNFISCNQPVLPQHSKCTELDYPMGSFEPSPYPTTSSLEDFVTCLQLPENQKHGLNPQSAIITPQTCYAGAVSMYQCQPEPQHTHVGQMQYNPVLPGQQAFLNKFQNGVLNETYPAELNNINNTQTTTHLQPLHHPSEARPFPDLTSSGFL
Assay: DRE-luciferase transcriptional reporter assay in HEPG2 DRE-Luc cells, TCDD-induced (antagonist mode)
Assay type: cell-based
Conditions: relative IC50, 3 nM TCDD, 24-hour incubation, firefly luciferase readout
How it was run: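 Stable DRE(XRE)-luciferase HEPG2 clone seeded in OptiMEM with 0.5% heat-inactivated FBS, then given a semi-log compound dilution plus TCDD at 3 nM final. After 24 h, cells were lysed and firefly luminescence read. Response was normalised between TCDD and vehicle, and relative IC50 was taken as half-reduction between the fitted curve plateaus.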

SMILES | IC50 [nM]
Cc1cc(-c2ncc3cc(C(F)(F)F)ccc3n2)ccc1N1CCOc2cn(Cc3nnn[nH]3)nc2C1=O [compound 077, 2-((1H-tetrazol-5-yl)methyl)-7-(2-methyl-4-(6-(trifluoromethyl)-quinazolin-2-yl)phenyl)-6,7-dihydro-2H-pyrazolo[3,4-f][1,4]oxazepin-8 (5H)-one] | 1000 to 10000
Cc1cc(-c2ncc3cc(C(F)(F)F)ccc3n2)ccc1N1CCn2nc(C(=O)N[C@H](C)CO)c(C)c2C1=O [compound 080, (R)-N-(1-hydroxypropan-2-yl)-3-methyl-5-(2-methyl-4-(6-(trifluoromethyl)-quinazolin-2-yl)phenyl)-4-oxo-4,5,6,7-tetrahydropyrazolo[1,5-a]pyrazine-2-carboxamide] | < 200
Cc1cc(-c2ncc3nc(C(F)(F)F)ccc3n2)ccc1N1CCOc2c(C(C)(C)O)nn(C)c2C1=O [compound 084, 3-(2-hydroxypropan-2-yl)-1-methyl-7-(2-methyl-4-(6-(trifluoromethyl)pyrido[3,2-d]pyrimidin-2-yl)phenyl)-6,7-dihydro-1H-pyrazolo[3,4-f][1,4]oxazepin-8 (5H)-one] | < 200
Cc1cc(-c2ncc3nc(C(F)(F)F)ccc3n2)ccc1N1CCOc2c(CN(C)C)nn(C)c2C1=O [compound 085, 3-((dimethylamino)methyl)-1-methyl-7-(2-methyl-4-(6-(trifluoromethyl)pyrido-[3,2-d]pyrimidin-2-yl)phenyl)-6,7-dihydro-1H-pyrazolo[3,4-f][1,4]oxazepin-8 (5H)-one] | < 200
CCOC(=O)c1nn(C)c2c1OCCN(c1ccc(-c3ncc4nc(C(F)(F)F)ccc4n3)cc1C)C2=O [compound 086, ethyl 1-methyl-7-(2-methyl-4-(6-(trifluoromethyl)pyrido[3,2-d]pyrimidin-2-yl)phenyl)-8-oxo-5,6,7,8-tetrahydro-1H-pyrazolo[3,4-f][1,4]oxazepine-3-carboxylate] | < 200
Cc1cc(-c2ncc3nc(C(F)(F)F)ccc3n2)ccc1N1CCn2nc(CO)c(C)c2C1=O [compound 088, 2-(hydroxymethyl)-3-methyl-5-(2-methyl-4-(6-(trifluoromethyl)-pyrido-[3,2-d]pyrimidin-2-yl)phenyl)-6,7-dihydropyrazolo[1,5-a]pyrazin-4 (5H)-one] | < 200
Cc1cc(-c2ncc3cc(C(F)(F)F)ccc3n2)ccc1N1CC(COCc2ccccc2)n2ncc(C)c2C1=O (stereo not drawn) [compound 090, 7-((benzyloxy)methyl)-3-methyl-5-(2-methyl-4-(6-(trifluoromethyl)-quinazolin-2-yl)phenyl)-6,7-dihydropyrazolo[1,5-a]pyrazin-4 (5H)-one] | < 200
Cc1cc(-c2ncc3cc(C(F)(F)F)ccc3n2)ccc1N1CCn2nc(CN3CCOC(C)C3)c(C)c2C1=O (stereo not drawn) [compound 091, 3-methyl-5-(2-methyl-4-(6-(trifluoromethyl)quinazolin-2-yl)phenyl)-2-((2-methylmorpholino)methyl)-6,7-dihydropyrazolo[1,5-a]pyrazin-4 (5H)-one] | < 200
Cc1cc(-c2ncc3cc(C(F)(F)F)ccc3n2)ccc1N1CCn2nc(C(C)O)cc2C1=O (stereo not drawn) [compound 092, 2-(1-hydroxyethyl)-5-(2-methyl-4-(6-(trifluoromethyl)quinazolin-2-yl)phenyl)-6,7-dihydropyrazolo[1,5-a]pyrazin-4 (5H)-one] | < 200

Other lines, results leading:

IC50 [nM] | SMILES
1000 to 10000 | Cc1cc(-c2ncc3cc(C(F)(F)F)ccc3n2)ccc1N1CCOc2cn(CC(=O)O)nc2C1=O [compound 078, 2-(7-(2-methyl-4-(6-(trifluoromethyl)quinazolin-2-yl)phenyl)-8-oxo-5,6,7,8-tetrahydro-2H-pyrazolo[3,4-f][1,4]oxazepin-2-yl)acetic acid]
< 200 | Cc1cc(-c2ncc3cc(C(F)(F)F)ccc3n2)ccc1N1CCn2ncc(CO)c2C1=O [compound 079, 3-(hydroxymethyl)-5-(2-methyl-4-(6-(trifluoromethyl)quinazolin-2-yl)phenyl)-6,7-dihydropyrazolo[1,5-a]pyrazin-4 (5H)-one]
< 200 | Cc1cc(-c2ncc3cc(C(F)(F)F)ccc3n2)ccc1N1CCn2ncc(N[C@@H](C)CO)c2C1=O [compound 081, (S)-3-((1-hydroxypropan-2-yl)amino)-5-(2-methyl-4-(6-(trifluoromethyl)-quinazolin-2-yl)phenyl)-6,7-dihydropyrazolo[1,5-a]pyrazin-4 (5H)-one]
< 200 | Cc1cc(-c2ncc3nc(C(F)(F)F)ccc3n2)ccc1N1CCOc2c(CO)nn(C)c2C1=O [compound 082, 3-(hydroxymethyl)-1-methyl-7-(2-methyl-4-(6-(trifluoromethyl)-pyrido-[3,2-d]pyrimidin-2-yl)phenyl)-6,7-dihydro-1H-pyrazolo[3,4-f][1,4]oxazepin-8 (5H)-one]
< 200 | Cc1cc(-c2ncc3nc(C(F)(F)F)ccc3n2)ccc1N1CCOc2c(C(C)O)nn(C)c2C1=O (stereo not drawn) [compound 083, 3-(1-hydroxyethyl)-1-methyl-7-(2-methyl-4-(6-(trifluoromethyl)-pyrido[3,2-d]pyrimidin-2-yl)phenyl)-6,7-dihydro-1H-pyrazolo[3,4-f][1,4]oxazepin-8 (5H)-one]
< 200 | Cc1cc(-c2ncc3cc(C(F)(F)F)ccc3n2)ccc1N1CCn2nc(OCCO)c(C)c2C1=O [compound 089, 2-(2-hydroxyethoxy)-3-methyl-5-(2-methyl-4-(6-(trifluoromethyl)quinazolin-2-yl)phenyl)-6,7-dihydropyrazolo[1,5-a]pyrazin-4 (5H)-one]
